For one cell line, relative viability results are on record in the supplement of paper PMC10307832.

Holding throughout (assay): relative viability (nuclei count vs DMSO), 5 days (fraction); higher = more cells survive
Compound in the experiment “Tanzisertib + Decitabine”: O[C@H]1CC[C@H](Nc2ncc3nc(Nc4c(F)cc(F)cc4F)n([C@H]4CCOC4)c3n2)CC1 [Tanzisertib] + Nc1ncn([C@H]2C[C@H](O)[C@@H](CO)O2)c(=O)n1 [Decitabine] (partner 2 µM)
The method in brief: (§1)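 Lung cancer cell lines, seeded in 1536-well plates, were treated the following day by pin tool with a single drug or with five library-drug doses (not always all listed) in √10 steps on top of a fixed anchor-drug dose. Cells were fixed and nuclei stained in one step after 5 days, and nuclei were counted. Relative viability is the nuclei count for treated wells divided by that for vehicle wells, reported as medians of duplicate plates.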

Compound in experiment [1]: C1CNCCC1C2=CC(=NN2)C3=CC=NC=C3 + CS(=O)(=O)N1CCN(Cc2cc3nc(-c4cccc5[nH]ncc45)nc(N4CCOCC4)c3s2)CC1 [Pictilisib] (partner 1 µM)
The method in brief:
as §1

Compound in the experiment “Tanzisertib + Trametinib”: O[C@H]1CC[C@H](Nc2ncc3nc(Nc4c(F)cc(F)cc4F)n([C@H]4CCOC4)c3n2)CC1 [Tanzisertib] + CC(=O)Nc1cccc(-n2c(=O)n(C3CC3)c(=O)c3c(Nc4ccc(I)cc4F)n(C)c(=O)c(C)c32)c1 [Trametinib] (partner 0.02 µM)
The method in brief: as §1

Compound in experiment [2]: C[C@@H](N)c1ccc(C(=O)Nc2ccnc3[nH]ccc23)cc1 + Cc1cc(Nc2cc(N3CCN(C)CC3)nc(Sc3ccc(NC(=O)C4CC4)cc3)n2)n[nH]1 [Tozasertib] (partner 0.1 µM)
The method in brief:
as §1

With UMC-11, the relative viability in the experiment with Tanzisertib + Decitabine (first compound 0.08 µM) turned out to be 0.662; with Tanzisertib + Decitabine (first compound 0.253 µM) it was 0.688; in the experiment with Tanzisertib + Decitabine (first compound 0.8 µM), 0.654; with Tanzisertib + Decitabine (first compound 2.53 µM), 0.852; in the experiment with Tanzisertib + Decitabine (first compound 8 µM), 0.85; in experiment [1] (first compound 0.08 µM), 0.698. The relative viability came to 1.16 in experiment [1] (first compound 0.8 µM); 0.97 in experiment [1] (first compound 2.53 µM); 0.822 in experiment [1] (first compound 8 µM); 0.735 with Tanzisertib + Trametinib (first compound 0.08 µM); 0.695 with Tanzisertib + Trametinib (first compound 0.253 µM); 0.759 in the experiment with Tanzisertib + Trametinib (first compound 0.8 µM). Further, the relative viability turned out to be 0.719 in the experiment with Tanzisertib + Trametinib (first compound 2.53 µM); 0.764 with Tanzisertib + Trametinib (first compound 8 µM); 0.215 in experiment [2] (first compound 0.04 µM); 0.18 in experiment [2] (first compound 0.1265 µM); 0.205 in experiment [2] (first compound 0.4 µM); 0.198 in experiment [2] (first compound 4 µM).
